Assay results: publication PMC8380212, “^18F-labeled tracers targeting fibroblast activation protein” (EJNMMI Radiopharmacy and Chemistry, 2021)

Target: T1, FAP‐transfected HT‐1080‐FAP cells (Homo sapiens, UniProt Q12884)
T1 construct: expressed in transfected cells; host or cells: HT-1080 cells transfected with FAP (HT-1080-FAP)
T1 sequence (Q12884 1-760): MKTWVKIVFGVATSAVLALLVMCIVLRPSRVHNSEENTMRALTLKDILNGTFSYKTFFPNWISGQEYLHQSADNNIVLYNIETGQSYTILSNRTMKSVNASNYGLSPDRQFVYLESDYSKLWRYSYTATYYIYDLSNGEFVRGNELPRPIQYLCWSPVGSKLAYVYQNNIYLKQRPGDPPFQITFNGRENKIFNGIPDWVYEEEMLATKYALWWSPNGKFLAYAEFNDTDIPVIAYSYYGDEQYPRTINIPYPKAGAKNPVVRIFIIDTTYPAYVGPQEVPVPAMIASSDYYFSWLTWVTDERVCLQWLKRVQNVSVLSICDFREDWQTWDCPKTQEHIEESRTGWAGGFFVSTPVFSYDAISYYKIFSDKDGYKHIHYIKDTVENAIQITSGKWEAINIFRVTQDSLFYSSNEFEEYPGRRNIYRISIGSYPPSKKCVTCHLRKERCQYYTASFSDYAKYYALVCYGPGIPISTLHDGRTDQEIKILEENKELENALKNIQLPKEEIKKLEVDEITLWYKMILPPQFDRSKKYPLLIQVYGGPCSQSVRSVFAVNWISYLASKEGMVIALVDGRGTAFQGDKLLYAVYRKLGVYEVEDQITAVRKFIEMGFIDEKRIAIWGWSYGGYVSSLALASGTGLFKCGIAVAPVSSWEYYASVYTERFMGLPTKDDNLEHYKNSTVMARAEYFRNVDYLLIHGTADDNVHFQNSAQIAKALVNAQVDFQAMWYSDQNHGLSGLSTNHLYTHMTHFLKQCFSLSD
Assay: In vitro binding/uptake on FAP-transfected HT-1080-FAP cells
Type: cell-based
Conditions: HT1080-FAP cells
Description: The binding properties of the FAPI derivatives were evaluated using the FAP‐transfected HT‐1080‐FAP and CD26 expressing HEK-CD26 cells. All cells were cultivated in Dulbecco's modified Eagle's medium (DMEM) containing 10% fetal calf serum (FCS) at 37 °C/5% carbon dioxide. Cells were seeded in 6-well plates and cultivated to a final confluence of approximately 80–90% (1.2 to 2.0 × 10^6 cells/well). After washing with FCS free medium, for each well ca. 3 kBq of the radiolabeled compound (10–20 GBq/µmol for [^18F]AlF-labeling) was added to the cells in FCS free medium. On completion of the individual incubation time, cells were washed with PBS and treated with 1.4 mL lysis buffer (0.3 m NaOH, 0.2% SDS) before being transferred to measuring tubes. Competition experiments were performed by co-incubation with the unlabeled precursor for 60 min. Radioactivity was determined in a Wizard Gamma Counter (Perkin Elmer), normalized to 10^6 cells and calculated as percentage of the applied dose (%AD). Each experiment was performed in triplicate.

- uptake 10 min (10 min incubation): 27.2 ± 0.88 %AD/10^6 cells
- uptake 60 min (60 min incubation): 29.7 ± 0.66 %AD/10^6 cells
- uptake 120 min (120 min incubation): 30.39 ± 2.47 %AD/10^6 cells
SMILES: N#C[C@@H]1CCCN1C(=O)CNC(=O)c1ccnc2ccc(OCCCN3CCN(C(=O)CN4CCN(CC(=O)O)CCN(CC(=O)O)CC4)CC3)cc12 [FAPI-74]
